Converted amounts (≈) assume the structure as drawn. Each block holds one molecule with its values, some of them ahead of it.
Tests used:
Experiment in all cases: ≥ marks a high value that may be exact or a test limit, other limits are often not marked, values filed in µg/mL are converted to µM
[1] = tested on: Staphylococcus aureus ATCC 25923
[2] = tested on: Escherichia coli ATCC 25922
[3] = tested on: Candida albicans NCTC 3179
[4] = tested on: Bacillus cereus NCLM 2156
[5] = tested on: Pseudomonas aeruginosa ATCC 10145
[6] = tested on: Escherichia coli NCLM 2064
Vibrio cholerae PL91 = tested on: Vibrio cholerae PL91
[7] = tested on: Bacillus cereus ATCC 14579
Trichoderma asperellum = tested on: Trichoderma asperellum
[8] = tested on: Cryptococcus neoformans ATCC 28957
[9] = tested on: Bacillus subtilis ATCC 23857
Rhizoctonia solani = tested on: Rhizoctonia solani
[10] = tested on: Candida albicans ATCC 90028
Ramulariopsis gossypii = tested on: Ramulariopsis gossypii
[11] = tested on: Xanthomonas campestris pv. citri
[12] = tested on: Fusarium oxysporum f.sp. vasinfectum
Fusarium solani = tested on: Fusarium solani
[13] = tested on: Pectobacterium carotovorum
Fusarium oxysporum = tested on: Fusarium oxysporum
[14] = tested on: Pseudomonas aeruginosa ATCC 27853
[15] = tested on: Pseudomonas syringae pv. tabaci
[16] = tested on: Klebsiella pneumoniae Q14-0285
[17] = tested on: Enterococcus faecalis JH-2-2
[18] = tested on: Klebsiella pneumoniae NCTC 13442
[19] = tested on: Pseudomonas aeruginosa Q12-0535
[20] = tested on: Staphylococcus aureus MRSA-15
[21] = tested on: Staphylococcus aureus USA 300
[22] = tested on: Pseudomonas aeruginosa Q14-0208
[23] = tested on: Campylobacter jejuni NCTC 11161
[24] = tested on: Campylobacter jejuni ATCC 33292
[25] = tested on: Klebsiella pneumoniae Q14-0095
[26] = tested on: Campylobacter jejuni NCTC 11351
[27] = tested on: Staphylococcus aureus RN4220
[28] = tested on: Klebsiella pneumoniae ATCC 700603
[29] = tested on: Staphylococcus aureus NCTC 12493
[30] = tested on: Listeria monocytogenes NCTC 11994
[31] = tested on: Acinetobacter baumannii Q13-0717
[32] = tested on: Staphylococcus aureus ATCC 33591
Escherichia coli = tested on: Escherichia coli
Escherichia coli K-12 = tested on: Escherichia coli K-12
[33] = tested on: Pseudomonas aeruginosa Q14-0890
[34] = tested on: Pseudomonas aeruginosa PAO1
[35] = tested on: Acinetobacter baumannii Q12-0809
[36] = tested on: Acinetobacter baumannii Q12-0867
[37] = tested on: Salmonella typhimurium SL1344
[38] = tested on: Staphylococcus aureus ATCC 29213
[39] = tested on: Staphylococcus aureus Q14-0320

MIC [1]: 11.2 µM (≈ 31 µg/mL)
MIC [2]: 2.03 µM (≈ 5.6 µg/mL)
MIC [3]: ≥ 90.6 µM
SMILES: CC[C@H](C)[C@H](NC(=O)[C@H](C)NC(=O)[C@H](CC(=O)O)NC(=O)[C@H](CC(C)C)NC(=O)[C@H](CC(N)=O)NC(=O)[C@H](C)N)C(=O)N[C@H](C(=O)N[C@@H](CCCCN)C(=O)N[C@H](C(=O)N[C@@H](CCC(N)=O)C(=O)N[C@@H](C)C(=O)N[C@@H](Cc1c[nH]c2ccccc12)C(=O)N[C@@H](C)C(=O)N[C@@H](CCCN=C(N)N)C(=O)N[C@@H](CCSC)C(=O)N[C@@H](Cc1c[nH]c2ccccc12)C(=O)N[C@@H](C)C(=O)N[C@@H](C)C(=O)N[C@@H](CCCN=C(N)N)C(=O)N[C@@H](CCCN=C(N)N)C(=O)N[C@@H](CCC(N)=O)C(=O)N[C@@H](Cc1ccc(O)cc1)C(=O)N[C@@H](CC(C)C)C(=O)O)[C@@H](C)CC)[C@@H](C)CC [ANLDAIIKIQAWARMWAARRQYL]

MIC [1]: > 59.6 µM
MIC [4]: ≥ 39.7 µM
MIC [5]: ≥ 59.6 µM
MIC [6]: 11.9 µM (≈ 30 µg/mL)
SMILES: CC[C@H](C)[C@H](NC(=O)[C@H](CCCCN)NC(=O)[C@@H](NC(=O)[C@H](CC(C)C)NC(=O)[C@@H]1CCCN1C(=O)CNC(=O)[C@H](Cc1ccccc1)NC(=O)[C@@H](N)Cc1ccccc1)[C@@H](C)CC)C(=O)N[C@@H](C)C(=O)N[C@H](C(=O)NCC(=O)N[C@H](C(=O)N[C@@H](CC(C)C)C(=O)N1CCC[C@H]1C(=O)N[C@@H](CC(N)=O)C(=O)N[C@@H](CC(C)C)C(=O)N[C@H](C(=O)N[C@H]1CSSC[C@@H](C(=O)O)NC(=O)[C@H](CCCCN)NC(=O)CNC(=O)[C@H](CC(C)C)NC(=O)[C@H](C)NC(=O)[C@H](CCCCN)NC1=O)[C@@H](C)CC)C(C)C)[C@@H](C)O [FFGPLIKIATGVLPNLICKALGKC]
MIC (Vibrio cholerae PL91): ≥ 59.6 µM

MIC [1]: 2 µM (≈ 4.92 µg/mL)
MIC [7]: 6.67 µM (≈ 16.4 µg/mL)
MIC (Trichoderma asperellum): 16 µM (≈ 39.4 µg/mL)
MIC [8]: 8 µM (≈ 19.7 µg/mL)
MIC [9]: 2 µM (≈ 4.92 µg/mL)
MIC (Rhizoctonia solani): 16 µM (≈ 39.4 µg/mL)
MIC [10]: 4 µM (≈ 9.84 µg/mL)
MIC (Ramulariopsis gossypii): 4 µM (≈ 9.84 µg/mL)
MIC [2]: 2 µM (≈ 4.92 µg/mL)
MIC [11]: 4 µM (≈ 9.84 µg/mL)
MIC [12]: 2 µM (≈ 4.92 µg/mL)
MIC (Fusarium solani): ≥ 32 µM
MIC [13]: 3.33 µM (≈ 8.19 µg/mL)
MIC (Fusarium oxysporum): ≥ 32 µM
MIC [14]: 4 µM (≈ 9.84 µg/mL)
MIC [15]: 4 µM (≈ 9.84 µg/mL)
SMILES: CC(C)C[C@H](NC(=O)[C@H](C)NC(=O)[C@H](C)NC(=O)[C@@H](NC(=O)[C@H](CC(C)C)NC(=O)[C@H](CCCCN)NC(=O)[C@@H](NC(=O)[C@H](CC(C)C)NC(=O)[C@H](CCCN=C(N)N)NC(=O)[C@H](Cc1cnc[nH]1)NC(=O)[C@@H](N)CC(C)C)C(C)C)C(C)C)C(=O)N[C@@H](CC(C)C)C(=O)N[C@@H](CCCN=C(N)N)C(=O)NCC(=O)N[C@@H](Cc1ccc(O)cc1)C(=O)N[C@@H](C)C(=O)N[C@@H](CO)C(=O)N[C@@H](CCCCN)C(=O)N[C@H](C(=O)N[C@@H](CC(=O)O)C(=O)N[C@H](C(=O)N[C@@H](Cc1cnc[nH]1)C(N)=O)[C@@H](C)O)C(C)C [LHRLVKLVAALLRGYASKVDTH]

MIC [16]: 24.1 µM (≈ 64 µg/mL)
MIC [17]: 24.1 µM (≈ 64 µg/mL)
MIC [18]: 12.1 µM (≈ 32 µg/mL)
MIC [19]: ≥ 48.2 µM
MIC [20]: 12.1 µM (≈ 32 µg/mL)
MIC [21]: 24.1 µM (≈ 64 µg/mL)
MIC [22]: 12.1 µM (≈ 32 µg/mL)
MIC [23]: ≥ 96.5 µM
MIC [24]: 24.1 µM (≈ 64 µg/mL)
MIC [25]: 12.1 µM (≈ 32 µg/mL)
MIC [26]: ≥ 48.2 µM
MIC [27]: 12.1 µM (≈ 32 µg/mL)
MIC [28]: 12.1 µM (≈ 32 µg/mL)
MIC [29]: 24.1 µM (≈ 64 µg/mL)
MIC [30]: 12.1 µM (≈ 32 µg/mL)
MIC [31]: 12.1 µM (≈ 32 µg/mL)
MIC [32]: 24.1 µM (≈ 64 µg/mL)
MIC (Escherichia coli): 48.2 µM (≈ 128 µg/mL)
MIC (Escherichia coli K-12): 24.1 µM (≈ 64 µg/mL)
MIC [33]: 6.03 µM (≈ 16 µg/mL)
MIC [34]: 12.1 µM (≈ 32 µg/mL)
MIC [35]: 6.03 µM (≈ 16 µg/mL)
MIC [14]: 48.2 µM (≈ 128 µg/mL)
MIC [36]: 3.02 µM (≈ 8 µg/mL)
MIC [37]: 24.1 µM (≈ 64 µg/mL)
MIC [38]: 48.2 µM (≈ 128 µg/mL)
MIC [39]: ≥ 48.2 µM
SMILES: CC(C)C[C@H](NC(=O)[C@H](CS)NC(=O)[C@H](CC(C)C)NC(=O)[C@H](CCCN=C(N)N)NC(=O)[C@H](Cc1c[nH]c2ccccc12)NC(=O)[C@@H]1CCCN1C(=O)[C@@H](NC(=O)[C@H](CCCN=C(N)N)NC(=O)[C@H](CCCN=C(N)N)NC(=O)[C@H](Cc1ccccc1)NC(=O)[C@H](CCCN=C(N)N)NC(=O)[C@H](C)NC(=O)[C@@H](NC(=O)[C@H](Cc1ccccc1)NC(=O)[C@H](CCCN=C(N)N)NC(=O)[C@@H](N)CC(N)=O)[C@@H](C)O)[C@@H](C)O)C(=O)N[C@@H](CCC(N)=O)C(=O)N[C@@H](Cc1ccccc1)C(=O)N[C@@H](CCCN=C(N)N)C(=O)N[C@@H](CCC(N)=O)C(=O)O [NRFTARFRRTPWRLCLQFRQ]

From DBAASP
